Measured values as given in article PMC7402526, “An in vitro quantitative systems pharmacology approach for deconvolving mechanisms of drug-induced, multilineage cytopenias” (PLoS Computational Biology, 2020).

Tests used:
[1] = test system: multi-potent progenitors (MPPs); test: MLTA, MPPs: concentration-response and QSP model fit; type: cell-based, human; settings: Homo sapiens, 144 h
Procedure, shortened: (§1)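 Six-day flow cytometry counts, bead-normalized and expressed relative to the mean of six vehicle wells, underlie each value. Cells were primary human bone marrow CD34+ cells cultured in SFEM II with cytokines promoting multi-lineage differentiation and self-renewal.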

[2] = test system: granulocyte-macrophage progenitor (GMPs); test: MLTA, GMPs: concentration-response and QSP model fit; type: cell-based, human; settings: Homo sapiens, 144 h
Procedure, shortened: as §1

B cells (B-lin) = test: MLTA, B-lin: concentration-response and QSP model fit; type: cell-based, human; settings: Homo sapiens, B-cell, 144 h
Procedure, shortened: as §1

[3] = test system: total dead cells (totalDeadCells); test: MLTA, total dead cells concentration-response; type: cell-based; settings: Homo sapiens, 144 h, 6 days, normalized to vehicle control, read-out: total_dead normalized cell count
Procedure, shortened: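 Freeze-thawed primary human bone marrow CD34+ cells in SFEM II with cytokine cocktail, drug added day 0, 6 days at 37°C, 5% CO2. Live/dead counts by 17-parameter flow cytometry with DAPI exclusion, bead-normalized, volume-corrected to cells/mL. Normalized per donor to mean of six vehicle wells; 2–7 donors pooled.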

granulocytes (Gran-lin) = test: MLTA, Gran: concentration-response and QSP model fit; type: cell-based, human; settings: Homo sapiens, 144 h
Procedure, shortened: (§2)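 Freeze-thawed primary human bone marrow CD34+ cells were grown in SFEM II with a multi-lineage cytokine cocktail, drug added day 0, six days at 37°C. Lineage counts came from 17-parameter flow with TruCount beads, vehicle-normalized per donor, then fitted by an Emax-based QSP model.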

monocytes (monocyte-lin) = test: MLTA, Mono: concentration-response and QSP model fit; type: cell-based, human; settings: Homo sapiens, Monocyte, 144 h
Procedure, shortened: as §2

[4] = test system: hematopoietic stem cells (HSCs); test: Multi-lineage toxicity assay (MLTA), HSCs: concentration-response and QSP model fit; type: cell-based, human; design: EmaxAP,HSC / EmaxT,HSC / Emax_drug_HSC: unitless, 0–2; ≤1 anti-proliferative, >1 adds cell killing
Procedure, shortened: as §1

[5] = test system: lymphocyte progenitors (LymP); test: MLTA, LymP: concentration-response and QSP model fit; type: cell-based, human; settings: Homo sapiens, Lymphocyte, 144 h
Procedure, shortened: as §1

[6] = QSP model fit of 6-day MLTA data

EC50 [2, 6]: 37.3 nM
EC50 (B cells (B-lin); [6]): 69.2 nM
EC50 (monocytes (monocyte-lin); [6]): 46.2 nM
Compound: CCN1CCN(Cc2ccc(Nc3ncc(F)c(-c4cc(F)c5nc(C)n(C(C)C)c5c4)n3)nc2)CC1 [abemaciclib]
activity at 0.0002 µM ([1]; dose 0.2 nM, 6 days, normalized to vehicle control, read-out: MPPs normalized cell count): 102%
activity at 0.001 µM ([1]; dose 1 nM, 6 days, normalized to vehicle control, read-out: MPPs normalized cell count): 98.3%
activity at 0.005 µM ([1]; dose 5 nM, 6 days, normalized to vehicle control, read-out: MPPs normalized cell count): 80.3%
activity at 0.025 µM ([1]; dose 25 nM, 6 days, normalized to vehicle control, read-out: MPPs normalized cell count): 44.3%
activity at 0.1 µM ([1]; dose 100 nM, 6 days, normalized to vehicle control, read-out: MPPs normalized cell count): 24.8%
activity at 0.5 µM ([1]; dose 500 nM, 6 days, normalized to vehicle control, read-out: MPPs normalized cell count): 27.6%
activity at 2.5 µM ([1]; dose 2500 nM, 6 days, normalized to vehicle control, read-out: MPPs normalized cell count): 3.6%
Emax ([1]; parameter from QSP model fitting, read-out: Emax_drug_MPP): 0.16%
activity at 0.0002 µM ([2]; dose 0.2 nM, 6 days, normalized to vehicle control, read-out: GMPs normalized cell count): 89.7%
activity at 0.001 µM ([2]; dose 1 nM, 6 days, normalized to vehicle control, read-out: GMPs normalized cell count): 108%
activity at 0.005 µM ([2]; dose 5 nM, 6 days, normalized to vehicle control, read-out: GMPs normalized cell count): 93.6%
activity at 0.025 µM ([2]; dose 25 nM, 6 days, normalized to vehicle control, read-out: GMPs normalized cell count): 50.4%
activity at 0.1 µM ([2]; dose 100 nM, 6 days, normalized to vehicle control, read-out: GMPs normalized cell count): 29.2%
activity at 0.5 µM ([2]; dose 500 nM, 6 days, normalized to vehicle control, read-out: GMPs normalized cell count): 5.84%
activity at 2.5 µM ([2]; dose 2500 nM, 6 days, normalized to vehicle control, read-out: GMPs normalized cell count): 0.643%
activity at 0.0002 µM (B cells (B-lin); dose 0.2 nM, 6 days, normalized to vehicle control, read-out: B-lin normalized cell count): 83.9%
activity at 0.001 µM (B cells (B-lin); dose 1 nM, 6 days, normalized to vehicle control, read-out: B-lin normalized cell count): 104%
activity at 0.005 µM (B cells (B-lin); dose 5 nM, 6 days, normalized to vehicle control, read-out: B-lin normalized cell count): 83.9%
activity at 0.025 µM (B cells (B-lin); dose 25 nM, 6 days, normalized to vehicle control, read-out: B-lin normalized cell count): 50.8%
activity at 0.1 µM (B cells (B-lin); dose 100 nM, 6 days, normalized to vehicle control, read-out: B-lin normalized cell count): 23.5%
activity at 0.5 µM (B cells (B-lin); dose 500 nM, 6 days, normalized to vehicle control, read-out: B-lin normalized cell count): 4.07%
activity at 2.5 µM (B cells (B-lin); dose 2500 nM, 6 days, normalized to vehicle control, read-out: B-lin normalized cell count): 0.0736%
Emax (B cells (B-lin); parameter from QSP model fitting, read-out: Emax_drug_B): 64.9%
activity at 0.0002 µM ([3]; dose 0.2 nM): 92%
activity at 0.001 µM ([3]; dose 1 nM): 97.6%
activity at 0.005 µM ([3]; dose 5 nM): 87.1%
activity at 0.025 µM ([3]; dose 25 nM): 46.8%
activity at 0.1 µM ([3]; dose 100 nM): 30.9%
activity at 0.5 µM ([3]; dose 500 nM): 22%
activity at 2.5 µM ([3]; dose 2500 nM): 34%
activity at 0.0002 µM (granulocytes (Gran-lin); dose 0.2 nM, 6 days, normalized to vehicle control, read-out: Gran normalized cell count): 101%
activity at 0.001 µM (granulocytes (Gran-lin); dose 1 nM, 6 days, normalized to vehicle control, read-out: Gran normalized cell count): 107%
activity at 0.005 µM (granulocytes (Gran-lin); dose 5 nM, 6 days, normalized to vehicle control, read-out: Gran normalized cell count): 91.3%
activity at 0.025 µM (granulocytes (Gran-lin); dose 25 nM, 6 days, normalized to vehicle control, read-out: Gran normalized cell count): 34.6%
activity at 0.1 µM (granulocytes (Gran-lin); dose 100 nM, 6 days, normalized to vehicle control, read-out: Gran normalized cell count): 9.12%
activity at 0.5 µM (granulocytes (Gran-lin); dose 500 nM, 6 days, normalized to vehicle control, read-out: Gran normalized cell count): 1.99%
activity at 2.5 µM (granulocytes (Gran-lin); dose 2500 nM, 6 days, normalized to vehicle control, read-out: Gran normalized cell count): 0.0882%
Emax (granulocytes (Gran-lin); parameter from QSP model fitting, read-out: Emax_drug_Gran): 0.16%
activity at 0.0002 µM (monocytes (monocyte-lin); dose 0.2 nM, 6 days, normalized to vehicle control, read-out: Mon normalized cell count): 92.9%
activity at 0.001 µM (monocytes (monocyte-lin); dose 1 nM, 6 days, normalized to vehicle control, read-out: Mon normalized cell count): 109%
activity at 0.005 µM (monocytes (monocyte-lin); dose 5 nM, 6 days, normalized to vehicle control, read-out: Mon normalized cell count): 87%
activity at 0.025 µM (monocytes (monocyte-lin); dose 25 nM, 6 days, normalized to vehicle control, read-out: Mon normalized cell count): 41.8%
activity at 0.1 µM (monocytes (monocyte-lin); dose 100 nM, 6 days, normalized to vehicle control, read-out: Mon normalized cell count): 10.9%
activity at 0.5 µM (monocytes (monocyte-lin); dose 500 nM, 6 days, normalized to vehicle control, read-out: Mon normalized cell count): 3.74%
activity at 2.5 µM (monocytes (monocyte-lin); dose 2500 nM, 6 days, normalized to vehicle control, read-out: Mon normalized cell count): 0.588%
Emax (monocytes (monocyte-lin); parameter from QSP model fitting, read-out: Emax_drug_Mono): 23.1%
EC50 ([4]; Homo sapiens, Hematopoietic stem cell, 144 h, QSP model fit of 6-day MLTA data): 111 nM
activity at 0.0002 µM ([4]; Homo sapiens, Hematopoietic stem cell, 144 h, dose 0.2 nM, 6 days, normalized to vehicle control, read-out: HSCs normalized cell count): 89.3%
activity at 0.001 µM ([4]; Homo sapiens, Hematopoietic stem cell, 144 h, dose 1 nM, 6 days, normalized to vehicle control, read-out: HSCs normalized cell count): 103%
activity at 0.005 µM ([4]; Homo sapiens, Hematopoietic stem cell, 144 h, dose 5 nM, 6 days, normalized to vehicle control, read-out: HSCs normalized cell count): 98.4%
activity at 0.025 µM ([4]; Homo sapiens, Hematopoietic stem cell, 144 h, dose 25 nM, 6 days, normalized to vehicle control, read-out: HSCs normalized cell count): 66.7%
activity at 0.1 µM ([4]; Homo sapiens, Hematopoietic stem cell, 144 h, dose 100 nM, 6 days, normalized to vehicle control, read-out: HSCs normalized cell count): 25.9%
activity at 0.5 µM ([4]; Homo sapiens, Hematopoietic stem cell, 144 h, dose 500 nM, 6 days, normalized to vehicle control, read-out: HSCs normalized cell count): 5.33%
activity at 2.5 µM ([4]; Homo sapiens, Hematopoietic stem cell, 144 h, dose 2500 nM, 6 days, normalized to vehicle control, read-out: HSCs normalized cell count): 2.74%
Emax ([4]; Homo sapiens, Hematopoietic stem cell, 144 h, parameter from QSP model fitting, read-out: Emax_drug_HSC): 91%
EmaxAP,HSC ([4]; anti-proliferation component, min(1, EmaxT)): 0.910
activity at 0.0002 µM ([5]; dose 0.2 nM, 6 days, normalized to vehicle control, read-out: LymP normalized cell count): 93.5%
activity at 0.001 µM ([5]; dose 1 nM, 6 days, normalized to vehicle control, read-out: LymP normalized cell count): 99.4%
activity at 0.005 µM ([5]; dose 5 nM, 6 days, normalized to vehicle control, read-out: LymP normalized cell count): 92.9%
activity at 0.025 µM ([5]; dose 25 nM, 6 days, normalized to vehicle control, read-out: LymP normalized cell count): 38.9%
activity at 0.1 µM ([5]; dose 100 nM, 6 days, normalized to vehicle control, read-out: LymP normalized cell count): 22.1%
activity at 0.5 µM ([5]; dose 500 nM, 6 days, normalized to vehicle control, read-out: LymP normalized cell count): 22.3%
activity at 2.5 µM ([5]; dose 2500 nM, 6 days, normalized to vehicle control, read-out: LymP normalized cell count): 7.46%
Emax ([5]; parameter from QSP model fitting, read-out: Emax_drug_LymP): 0.16%
